Patent US10479979B2, “Method for making and using cold atmospheric plasma stimulated media for cancer treatment” (U.S. Patent Innovations, LLC, priority 2015, dated 2019)

How the values were obtained:
MCF-7 cells = test: MTT cell viability of MCF-7 cells cultured 72 hours in test media; type: cell-based, Human
Procedure: (§1) As a preliminary step, cancer cells are cultured overnight. For example, the cancer cells may be cultured in an incubator under the standard conditions (a 37° C., 5% (v/v) CO2 and humidified environment) for […]. MTT (3-(4,5-dimethylthiazol-2-yl)-2,5-diphenyltetrazolium bromide), a colorimetric assay (Sigma-Aldrich) was harnessed to qualify the cell viability. The initial media which had been used to culture cancer cells overnight may be discarded prior to treatment with CAPs media. […]
(§2) For each cell line, the protocol was identical. […] Ultimately, according to the standard method, the viability of U87 cells were qualified by MTT test and were read by a H1 microplate reader (Hybrid Technology) at the absorbance of 570 nm.
(§3) The protocols for three cell lines were identical. […] Ultimately, the cell viability was measured.
(§4) The protocol for three cell lines was identical. […] Second, we respectively prepared 2.4 mM specific amino acids rich DMEM by dissolving specific quantities of amino acids powers (Sigma-Aldrich) in DMEM (1% ABS). […]

U87 cells = test: MTT cell viability of U87 cells cultured 72 hours in test media; type: cell-based, Human
Procedure: as §1, §2, §3, §4

[1] = H2O2 in complete media, nominal 1-100 μM, 72 hours

Structure (SMILES)	resistance to H2O2 rich media (MCF-7 cells; [1])	resistance to H2O2 rich media (U87 cells; [1])	growth of cancer cells in untreated amino acid rich DMEM (control group, toxicity) (MCF-7 cells; 2.4 mM, no CAP treatment)	growth of cancer cells in untreated amino acid rich DMEM (control group, toxicity) (U87 cells; 2.4 mM, no CAP treatment)
OO [H2O2, hydrogen peroxide]	stronger resistance to H2O2 than MDA-MB-231 cells	stronger resistance to H2O2 than MDA-MB-231 cells		
N[C@@H](Cc1c[nH]c2ccccc12)C(=O)O [tryptophan]			strong resistance to growth of cancer cells	strong resistance to growth of cancer cells
